This is an account of results in ChEMBL document CHEMBL4043230, “Synthesis and biological evaluation of peptide-derived TSLP inhibitors” (Bioorg Med Chem Lett, 2017).

Where a SMILES comes first, the peptide text is derived from it.

Test [1] deals with Thymic stromal lymphopoietin (Homo sapiens) (UniProt Q969D9). The test can be described thus: Inhibition of human N-terminal flag-tagged TSLP/human C-terminal octa histidine-tagged TSLPR interaction at 0.3 mM after 16 hrs by ELISA based spectrophotometric analysis.
Test [2] shares this target. The test can be described thus: Inhibition of human N-terminal flag-tagged TSLP/human C-terminal octa histidine-tagged TSLPR interaction at 0.1 mM after 16 hrs by ELISA based spectrophotometric analysis.
The target is the same in test [3]. Put plainly: Inhibition of human N-terminal flag-tagged TSLP/human C-terminal octa histidine-tagged TSLPR interaction at 1 mM after 16 hrs by ELISA based spectrophotometric analysis relative to control.

Thymic stromal lymphopoietin (Homo sapiens), sequence (Q969D9 whole entry): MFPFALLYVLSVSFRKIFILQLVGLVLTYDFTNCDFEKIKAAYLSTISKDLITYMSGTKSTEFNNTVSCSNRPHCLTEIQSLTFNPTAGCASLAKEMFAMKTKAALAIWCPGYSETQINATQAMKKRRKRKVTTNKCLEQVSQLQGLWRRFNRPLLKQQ

Turning to `CC(C)C[C@H](NC(=O)CNC(=O)[C@H](Cc1ccc(O)cc1)NC(=O)[C@H](Cc1cnc[nH]1)NC(=O)[C@H](C)NC(=O)[C@H](C)NC(=O)[C@@H](N)CCCNC(=N)N)C(=O)N[C@@H](CCC(=O)O)C(=O)O` (H-RAAHYGLE-OH), the figures for the inhibition in test [1], in test [2] and in test [3] were 10%, 4% and 45%, respectively.

As for `CC(=O)N[C@@H](CCCNC(=N)N)C(=O)N[C@@H](C)C(=O)N[C@@H](C)C(=O)N[C@@H](Cc1cnc[nH]1)C(=O)N[C@@H](Cc1ccc(O)cc1)C(=O)NCC(=O)N[C@@H](CC(C)C)C(=O)N[C@@H](CCC(=O)O)C(=O)N[C@@H](C)C(=O)O` (Ac-RAAHYGLEA-OH), the inhibition in test [1] came out at 11%; in test [2], 12%; in test [3], 34%.

In the case of `CC(C)C[C@H](NC(=O)CNC(=O)[C@H](Cc1ccc(O)cc1)NC(=O)[C@H](Cc1cnc[nH]1)NC(=O)[C@H](C)NC(=O)[C@H](C)NC(=O)[C@@H](N)CCCNC(=N)N)C(=O)N[C@@H](CCC(=O)O)C(=O)N[C@@H](C)C(=O)O` (H-RAAHYGLEA-OH), the figures for the inhibition in test [1], in test [2] and in test [3] were 17%, 7% and 35%, respectively.

Take `CC(=O)N[C@@H](C)C(=O)N[C@@H](CCCNC(=N)N)C(=O)N[C@@H](CCC(N)=O)C(=O)N[C@@H](CCCNC(=N)N)C(=O)N[C@@H](C)C(=O)N[C@@H](CO)C(=O)N[C@@H](C)C(=O)O` (Ac-ARQRASA-OH): the inhibition is 30% in test [1], 30% in test [2] and 26% in test [3].

Take `CC(=O)N[C@@H](C)C(=O)N[C@@H](CCCNC(=N)N)C(=O)N[C@@H](CCC(N)=O)C(=O)N[C@@H](CCCNC(=N)N)C(=O)N[C@@H](C)C(=O)N[C@@H](CO)C(=O)N[C@@H](C)C(=O)N[C@@H](Cc1c[nH]c2ccccc12)C(=O)O` (Ac-ARQRASAW-OH): the values for the inhibition in test [1], in test [2] and in test [3] were 56%, 50% and 65%, respectively.

Consider `CC(=O)N[C@@H](CCCNC(=N)N)C(=O)N[C@@H](CCC(N)=O)C(=O)N[C@@H](CCCNC(=N)N)C(=O)N[C@@H](C)C(=O)N[C@@H](CO)C(=O)N[C@@H](C)C(=O)O` (Ac-RQRASA-OH), for which the inhibition stood at 22% in test [1], 22% in test [2] and 18% in test [3].

As to `CC(C)C[C@H](NC(=O)CNC(=O)[C@H](Cc1ccc(O)cc1)NC(=O)[C@H](Cc1cnc[nH]1)NC(=O)[C@H](C)NC(=O)[C@H](C)N)C(=O)N[C@@H](CCC(=O)O)C(=O)O` (H-AAHYGLE-OH), the inhibition worked out at 3% in test [1], 2% in test [2] and 16% in test [3].

Regarding `C[C@H](N)C(=O)N[C@@H](CCCNC(=N)N)C(=O)N[C@@H](CCC(N)=O)C(=O)N[C@@H](CCCNC(=N)N)C(=O)N[C@@H](C)C(=O)N[C@@H](CO)C(=O)N[C@@H](C)C(=O)O` (H-ARQRASA-OH), the inhibition in test [1] was 32%; in test [2] it was 30%; in test [3], 30%.

Consider `CC(=O)N[C@@H](CCCNC(=N)N)C(=O)N[C@@H](CCC(N)=O)C(=O)N[C@@H](CCCNC(=N)N)C(=O)N[C@@H](C)C(=O)N[C@@H](CO)C(=O)N[C@@H](C)C(=O)N[C@@H](Cc1c[nH]c2ccccc12)C(=O)O` (Ac-RQRASAW-OH), for which the inhibition in test [1] worked out at 44%; in test [2], 38%; in test [3] it was 56%.

As to `CC(C)C[C@H](NC(=O)CNC(=O)[C@H](Cc1ccc(O)cc1)NC(=O)[C@H](Cc1cnc[nH]1)NC(=O)[C@H](C)NC(=O)[C@H](C)N)C(=O)N[C@@H](CCC(=O)O)C(=O)N[C@@H](C)C(=O)O` (H-AAHYGLEA-OH), the values for the inhibition in test [1], in test [2] and in test [3] were 23%, 5% and 59%, respectively.

In the case of `CC(=O)N[C@@H](C)C(=O)N[C@@H](C)C(=O)N[C@@H](Cc1cnc[nH]1)C(=O)N[C@@H](Cc1ccc(O)cc1)C(=O)NCC(=O)N[C@@H](CC(C)C)C(=O)N[C@@H](CCC(=O)O)C(=O)O` (Ac-AAHYGLE-OH), the inhibition in test [1] was 11%; in test [2] it was 4%; in test [3], 37%.

As to `C[C@H](NC(=O)[C@H](CO)NC(=O)[C@H](C)NC(=O)[C@H](CCCNC(=N)N)NC(=O)[C@H](CCC(N)=O)NC(=O)[C@@H](N)CCCNC(=N)N)C(=O)N[C@@H](Cc1c[nH]c2ccccc12)C(=O)O` (H-RQRASAW-OH), the results for the inhibition in test [1], in test [2] and in test [3] were 47%, 38% and 46%, respectively.

On to `CC(=O)N[C@@H](C)C(=O)N[C@@H](C)C(=O)N[C@@H](Cc1cnc[nH]1)C(=O)N[C@@H](Cc1ccc(O)cc1)C(=O)NCC(=O)N[C@@H](CC(C)C)C(=O)N[C@@H](CCC(=O)O)C(=O)N[C@@H](C)C(=O)O` (Ac-AAHYGLEA-OH), for which the inhibition in test [1] was 4%; in test [2], 2%; in test [3], 26%.

Consider `C[C@H](NC(=O)[C@H](CO)NC(=O)[C@H](C)NC(=O)[C@H](CCCNC(=N)N)NC(=O)[C@H](CCC(N)=O)NC(=O)[C@@H](N)CCCNC(=N)N)C(=O)O` (H-RQRASA-OH), for which the inhibition in test [1] is 15%; in test [2], 19%; in test [3], 18%.

As for `CC(=O)N[C@@H](CCCNC(=N)N)C(=O)N[C@@H](C)C(=O)N[C@@H](C)C(=O)N[C@@H](Cc1cnc[nH]1)C(=O)N[C@@H](Cc1ccc(O)cc1)C(=O)NCC(=O)N[C@@H](CC(C)C)C(=O)N[C@@H](CCC(=O)O)C(=O)O` (Ac-RAAHYGLE-OH), the figures for the inhibition in test [1], in test [2] and in test [3] were 15%, 5% and 52%, respectively.

In the case of `C[C@H](N)C(=O)N[C@@H](CCCNC(=N)N)C(=O)N[C@@H](CCC(N)=O)C(=O)N[C@@H](CCCNC(=N)N)C(=O)N[C@@H](C)C(=O)N[C@@H](CO)C(=O)N[C@@H](C)C(=O)N[C@@H](Cc1c[nH]c2ccccc12)C(=O)O` (H-ARQRASAW-OH), the inhibition in test [1] is 49%; in test [2] it was 42%; in test [3], 60%.
